The target in series [1] is T1, Neuronal acetylcholine receptor subunit alpha-7 (Rattus norvegicus, UniProt Q05941). Nature of the series: Agonist activity at rat alpha7 nAchR expressed in rat GH4C1 cells assessed as stimulation of calcium flux by FLIPR.
Series [2] has as its target Acetylcholine receptor; alpha1/beta1/delta/gamma (Homo sapiens, UniProt P02708+P07510+P11230+Q07001). Put plainly: Agonist activity at alpha1beta1gammadelta nAChR nAchR in human TE671 cells assessed as stimulation of calcium flux by FLIPR. It is filed as functional, cell-based, TE-671. The settings on record: for pIC50: TE-671. For orientation: Calcium assays in cells follow changes in intracellular calcium, usually with a dye or a luminescent sensor.

Series [3] deals with T2, 5-hydroxytryptamine receptor 3A (Homo sapiens, UniProt P46098).
T2 sequence (P46098 whole entry): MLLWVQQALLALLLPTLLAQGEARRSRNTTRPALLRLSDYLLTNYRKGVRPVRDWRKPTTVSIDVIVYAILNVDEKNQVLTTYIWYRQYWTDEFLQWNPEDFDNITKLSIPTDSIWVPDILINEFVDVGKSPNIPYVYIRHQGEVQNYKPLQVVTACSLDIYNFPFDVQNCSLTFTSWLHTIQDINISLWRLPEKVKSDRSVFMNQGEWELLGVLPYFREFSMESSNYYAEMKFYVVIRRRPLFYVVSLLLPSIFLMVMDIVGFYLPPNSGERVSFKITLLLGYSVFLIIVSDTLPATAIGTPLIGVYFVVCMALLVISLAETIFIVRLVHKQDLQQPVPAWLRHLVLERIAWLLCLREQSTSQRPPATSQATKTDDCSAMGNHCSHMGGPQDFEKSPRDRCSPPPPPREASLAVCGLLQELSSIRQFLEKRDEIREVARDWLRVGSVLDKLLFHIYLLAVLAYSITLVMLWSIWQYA
Nature of the series: (§1) Agonist activity at human 5HT3R expressed in HEK293 cells assessed as stimulation of calcium flux by FLIPR. It is filed as functional, cell-based.

The target of series [4] is Neuronal acetylcholine receptor subunit alpha-3 (Homo sapiens, UniProt P32297). Nature of the series: Agonist activity at alpha3 nAchR in human SH-SY5Y cells assessed as stimulation of calcium flux by FLIPR. The series is classed as functional, cell-based.
The test system of series [5] is Plasma. Put plainly: Stability in rat plasma assessed as compound remaining incubated for 3 hrs. It is filed as ADME, cell-free.
The target in series [6] is T3, 5-hydroxytryptamine receptor 3A (Homo sapiens) (UniProt P46098).
T3 sequence (whole entry): T2 sequence (P46098 whole entry)
The series is described as §1. The series is classed as functional, cell-based.

For series [7], the target named is Voltage-gated inwardly rectifying potassium channel KCNH2 (Homo sapiens, UniProt Q12809). Put plainly: Inhibition of human ERG expressed in CHO cells. The series is classed as cell-based.
For series [8], the target named is Neuronal acetylcholine receptor subunit alpha-7 (Rattus norvegicus) (UniProt Q05941). Put plainly: Agonist activity at rat alpha7 nAchR expressed in rat GH4C1 cells assessed as stimulation of calcium flux by FLIPR relative to nicotine. The series is classed as functional, cell-based. The following applies: GH4-C1.
Series [9] can be described thus: Toxicity in rat during 7-day tolerability study. The settings on record: in vivo. It is filed as organism-based.
Series [10] concerns Rattus norvegicus. Put plainly: Inhibition of MK801-Induced prepulse inhibition deficits in Long Evans rat administered orally 60 mins before MK-801 challenge. The series is classed as functional. The settings on record: po, read-out: MED.
The test system of series [11] is Rattus norvegicus. Put plainly: Induction of memory enhancement Wistar rat administered orally 30 mins before acquisition trial by novel object recognition test. It is filed as functional. The following applies: po, read-out: MED.
Series [12] relates to Rattus norvegicus. Nature of the series: Inhibition of MK801-Induced prepulse inhibition deficits in Long Evans rat at 1 to 10 mg/kg, po administered 60 mins before MK-801 challenge. It is filed as functional, organism-based.
For series [13], the system named is Rattus norvegicus. Put plainly: Induction of memory enhancement Wistar rat at 1 to 10 mg/kg, po administered 30 mins before acquisition trial pre-treated with 3 mg/kg alpha7 selective antagonist methyllycaconitin by novel object recognition test. The series is classed as functional, organism-based.
In series [14] the test system is Rattus norvegicus. Nature of the series: Induction of memory enhancement Wistar rat at 1 to 10 mg/kg, po administered 30 mins before acquisition trial by novel object recognition test. It is filed as functional, organism-based.
The target in series [15] is Histamine H3 receptor (Homo sapiens) (UniProt Q9Y5N1). Nature of the series: Inhibition of histamine H3 receptor at 10 uM.
For series [16], the target named is T4, Alpha-2C adrenergic receptor (Homo sapiens) (UniProt P18825).
T4 sequence (whole entry): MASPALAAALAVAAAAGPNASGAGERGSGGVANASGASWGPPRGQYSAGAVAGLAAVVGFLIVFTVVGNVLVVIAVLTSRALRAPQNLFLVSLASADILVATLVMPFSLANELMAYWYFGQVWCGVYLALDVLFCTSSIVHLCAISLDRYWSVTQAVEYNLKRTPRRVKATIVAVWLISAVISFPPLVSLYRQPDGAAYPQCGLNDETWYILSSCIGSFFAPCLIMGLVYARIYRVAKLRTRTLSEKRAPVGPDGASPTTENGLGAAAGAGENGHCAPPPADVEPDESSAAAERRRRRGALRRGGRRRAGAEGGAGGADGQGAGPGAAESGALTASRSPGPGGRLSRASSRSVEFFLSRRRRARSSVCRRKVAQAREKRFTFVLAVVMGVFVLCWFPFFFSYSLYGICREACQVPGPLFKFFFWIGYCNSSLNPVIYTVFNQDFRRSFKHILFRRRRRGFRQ
Nature of the series: Inhibition of alpha2c adrenergic receptor at 10 uM.

In series [17] the target is T5, Alpha-2B adrenergic receptor (Homo sapiens) (UniProt P18089).
T5 sequence (whole entry): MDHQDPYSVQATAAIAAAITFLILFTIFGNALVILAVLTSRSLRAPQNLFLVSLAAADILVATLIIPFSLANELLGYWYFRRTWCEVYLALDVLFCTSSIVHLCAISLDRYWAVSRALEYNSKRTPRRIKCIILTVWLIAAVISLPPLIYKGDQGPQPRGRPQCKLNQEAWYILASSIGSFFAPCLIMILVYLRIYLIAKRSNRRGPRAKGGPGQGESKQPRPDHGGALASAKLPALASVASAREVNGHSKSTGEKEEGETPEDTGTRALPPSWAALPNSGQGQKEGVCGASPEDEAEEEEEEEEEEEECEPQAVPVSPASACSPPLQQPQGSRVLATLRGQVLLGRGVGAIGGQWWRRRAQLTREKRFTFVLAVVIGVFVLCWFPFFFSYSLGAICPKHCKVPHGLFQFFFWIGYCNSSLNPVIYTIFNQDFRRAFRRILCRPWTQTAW
Put plainly: Inhibition of alpha2b adrenergic receptor at 10 uM.

Series [18] addresses T6, Alpha-2A adrenergic receptor (Homo sapiens) (UniProt P08913).
T6 sequence (whole entry): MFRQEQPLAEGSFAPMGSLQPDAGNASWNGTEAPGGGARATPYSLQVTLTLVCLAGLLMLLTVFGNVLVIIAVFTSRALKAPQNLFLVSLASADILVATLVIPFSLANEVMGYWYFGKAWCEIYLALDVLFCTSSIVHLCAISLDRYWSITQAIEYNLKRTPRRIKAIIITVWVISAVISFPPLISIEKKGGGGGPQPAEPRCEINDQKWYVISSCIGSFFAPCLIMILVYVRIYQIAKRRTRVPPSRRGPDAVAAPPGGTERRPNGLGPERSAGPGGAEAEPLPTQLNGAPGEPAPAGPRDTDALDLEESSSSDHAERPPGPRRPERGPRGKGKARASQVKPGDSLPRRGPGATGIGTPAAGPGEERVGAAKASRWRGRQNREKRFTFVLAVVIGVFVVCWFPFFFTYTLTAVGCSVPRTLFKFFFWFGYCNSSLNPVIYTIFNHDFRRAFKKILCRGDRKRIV
Nature of the series: Inhibition of alpha2a adrenergic receptor at 10 uM.

Series [19] deals with Neuronal acetylcholine receptor subunit alpha-7 (Homo sapiens, UniProt P36544). Nature of the series: Agonist activity at human alpha7 nAchR by patch clamp assay. The series is classed as functional. Background: The patch-clamp technique gives a direct electrical read-out from membranes.
The target of series [20] is T1, Neuronal acetylcholine receptor subunit alpha-7. Nature of the series: Agonist activity at rat alpha7 nAchR expressed in rat GH4C1 cells by patch clamp assay. It is filed as functional, cell-based, GH4-C1.
Series [21] has the same target. Put plainly: Displacement of [3H]-epibatidine from rat alpha7 nAchR expressed in rat GH4C1 cell membranes. Further details: species or system GH4-C1, Membrane. Background: In a radioligand displacement assay an active substance lowers the binding of a labelled ligand.
The nature of series [22]: Tmax in Wistar rat 10 mg/kg, po. The series is classed as ADME, organism-based. The arrangement: dose 10 mg/kg, route oral. The following applies: in vivo.
The nature of series [23]: Cmax in Wistar rat brain 3 mg/kg, po. It is filed as ADME, organism-based. The arrangement: dose 3 mg/kg, route oral.
The nature of series [24]: Clearance in Wistar rat 2 mg/kg, iv. The settings on record: in vivo. Further details: dose 2 mg/kg, route intravenous. It is filed as ADME, organism-based.

Calls of active or inactive are those of the source. The calls are words filed in the database; no cut-off is given here.

Results on twelve compounds are retold here after ChEMBL document CHEMBL2177080, “N-[5-(5-fluoropyridin-3-yl)-1H-pyrazol-3-yl]-4-piperidin-1-ylbutyramide (SEN78702, WYE-308775): a medicinal chemistry effort toward an α7 nicotinic acetylcholine receptor agonist preclinical candidate” (J Med Chem, 2012).

Sequence of Neuronal acetylcholine receptor subunit alpha-3 (P32297 whole entry): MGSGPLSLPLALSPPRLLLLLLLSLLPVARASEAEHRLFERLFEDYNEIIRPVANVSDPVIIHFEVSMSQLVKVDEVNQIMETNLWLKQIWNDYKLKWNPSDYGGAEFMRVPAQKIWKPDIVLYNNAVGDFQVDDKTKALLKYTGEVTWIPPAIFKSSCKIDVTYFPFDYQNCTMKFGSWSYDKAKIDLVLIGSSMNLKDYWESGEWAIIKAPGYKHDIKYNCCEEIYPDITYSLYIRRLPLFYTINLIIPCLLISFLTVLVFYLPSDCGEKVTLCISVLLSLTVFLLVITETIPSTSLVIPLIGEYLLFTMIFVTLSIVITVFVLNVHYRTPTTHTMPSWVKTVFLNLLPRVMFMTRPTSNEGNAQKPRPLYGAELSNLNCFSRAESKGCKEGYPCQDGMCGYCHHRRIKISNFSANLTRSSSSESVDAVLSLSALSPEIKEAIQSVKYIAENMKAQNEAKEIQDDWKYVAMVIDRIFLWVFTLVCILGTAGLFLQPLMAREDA
T1 sequence (Q05941 whole entry): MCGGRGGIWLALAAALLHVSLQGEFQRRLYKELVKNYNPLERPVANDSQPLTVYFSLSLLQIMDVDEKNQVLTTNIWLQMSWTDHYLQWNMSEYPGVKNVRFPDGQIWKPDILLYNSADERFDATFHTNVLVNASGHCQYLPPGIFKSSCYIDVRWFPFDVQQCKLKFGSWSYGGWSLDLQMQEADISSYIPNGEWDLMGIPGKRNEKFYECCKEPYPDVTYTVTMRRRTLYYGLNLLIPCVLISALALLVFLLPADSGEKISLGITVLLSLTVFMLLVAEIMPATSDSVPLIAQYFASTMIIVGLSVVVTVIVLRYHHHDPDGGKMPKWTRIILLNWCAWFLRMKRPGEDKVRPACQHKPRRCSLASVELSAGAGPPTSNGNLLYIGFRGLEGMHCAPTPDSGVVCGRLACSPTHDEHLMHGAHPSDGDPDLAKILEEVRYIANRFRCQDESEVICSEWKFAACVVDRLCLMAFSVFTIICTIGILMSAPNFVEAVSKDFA
Sequence of Neuronal acetylcholine receptor subunit alpha-7 (Rattus norvegicus) (Q05941 whole entry): as above
Sequence of Acetylcholine receptor; alpha1/beta1/delta/gamma (P02708 whole entry): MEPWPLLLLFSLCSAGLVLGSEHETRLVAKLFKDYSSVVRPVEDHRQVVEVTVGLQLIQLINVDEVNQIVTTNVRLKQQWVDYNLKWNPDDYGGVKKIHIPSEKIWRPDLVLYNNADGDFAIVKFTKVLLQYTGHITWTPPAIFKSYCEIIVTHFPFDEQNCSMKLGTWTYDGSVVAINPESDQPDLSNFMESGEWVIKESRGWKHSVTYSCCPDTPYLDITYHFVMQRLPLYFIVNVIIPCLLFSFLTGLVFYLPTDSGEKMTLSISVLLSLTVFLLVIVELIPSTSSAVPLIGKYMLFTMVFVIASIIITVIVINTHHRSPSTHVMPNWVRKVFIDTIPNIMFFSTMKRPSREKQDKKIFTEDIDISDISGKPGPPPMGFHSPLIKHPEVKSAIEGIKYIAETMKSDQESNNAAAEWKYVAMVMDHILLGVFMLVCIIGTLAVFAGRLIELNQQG
Sequence of Acetylcholine receptor; alpha1/beta1/delta/gamma (P07510 whole entry): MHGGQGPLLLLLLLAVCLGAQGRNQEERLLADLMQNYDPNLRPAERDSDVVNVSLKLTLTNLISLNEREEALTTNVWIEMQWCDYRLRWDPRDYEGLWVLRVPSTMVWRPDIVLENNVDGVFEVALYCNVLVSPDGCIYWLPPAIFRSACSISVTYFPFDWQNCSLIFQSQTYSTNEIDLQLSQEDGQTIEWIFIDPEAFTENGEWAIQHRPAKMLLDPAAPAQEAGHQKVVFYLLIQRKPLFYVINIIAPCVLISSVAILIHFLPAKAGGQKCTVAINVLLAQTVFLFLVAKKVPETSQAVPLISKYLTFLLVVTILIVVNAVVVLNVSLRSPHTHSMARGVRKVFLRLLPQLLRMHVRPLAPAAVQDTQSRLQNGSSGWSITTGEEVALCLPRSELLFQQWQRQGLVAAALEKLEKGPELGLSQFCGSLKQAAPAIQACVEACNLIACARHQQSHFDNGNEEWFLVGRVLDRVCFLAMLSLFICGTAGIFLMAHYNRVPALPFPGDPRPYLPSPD
Sequence of Acetylcholine receptor; alpha1/beta1/delta/gamma (P11230 whole entry): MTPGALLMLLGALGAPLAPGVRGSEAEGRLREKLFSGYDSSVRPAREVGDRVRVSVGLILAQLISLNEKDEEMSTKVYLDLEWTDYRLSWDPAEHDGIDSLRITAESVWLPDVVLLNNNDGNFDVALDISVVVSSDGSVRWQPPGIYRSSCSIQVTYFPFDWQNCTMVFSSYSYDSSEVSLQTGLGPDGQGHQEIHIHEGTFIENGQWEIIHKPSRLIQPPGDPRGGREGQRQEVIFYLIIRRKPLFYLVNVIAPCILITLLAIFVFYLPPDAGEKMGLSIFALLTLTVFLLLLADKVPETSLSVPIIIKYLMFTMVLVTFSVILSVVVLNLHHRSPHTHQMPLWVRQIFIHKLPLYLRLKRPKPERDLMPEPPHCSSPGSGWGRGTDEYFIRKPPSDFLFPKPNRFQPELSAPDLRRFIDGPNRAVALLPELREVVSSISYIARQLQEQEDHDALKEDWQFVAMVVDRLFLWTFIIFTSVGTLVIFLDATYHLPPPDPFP
Sequence of Acetylcholine receptor; alpha1/beta1/delta/gamma (Q07001 whole entry): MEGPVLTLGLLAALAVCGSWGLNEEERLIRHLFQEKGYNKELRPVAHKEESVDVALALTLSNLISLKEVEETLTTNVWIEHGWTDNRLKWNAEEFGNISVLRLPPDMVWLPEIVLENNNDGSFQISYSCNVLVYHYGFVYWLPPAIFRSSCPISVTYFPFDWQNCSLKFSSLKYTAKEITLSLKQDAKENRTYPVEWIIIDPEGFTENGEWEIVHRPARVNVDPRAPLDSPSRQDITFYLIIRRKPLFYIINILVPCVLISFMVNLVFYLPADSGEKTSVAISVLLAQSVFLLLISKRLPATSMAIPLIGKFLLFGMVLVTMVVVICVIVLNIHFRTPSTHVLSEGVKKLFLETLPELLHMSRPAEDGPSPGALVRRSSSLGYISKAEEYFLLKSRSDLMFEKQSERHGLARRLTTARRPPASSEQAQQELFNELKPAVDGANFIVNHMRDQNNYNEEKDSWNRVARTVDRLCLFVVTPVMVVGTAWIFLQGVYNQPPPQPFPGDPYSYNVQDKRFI
Sequence of Voltage-gated inwardly rectifying potassium channel KCNH2 (Q12809 whole entry): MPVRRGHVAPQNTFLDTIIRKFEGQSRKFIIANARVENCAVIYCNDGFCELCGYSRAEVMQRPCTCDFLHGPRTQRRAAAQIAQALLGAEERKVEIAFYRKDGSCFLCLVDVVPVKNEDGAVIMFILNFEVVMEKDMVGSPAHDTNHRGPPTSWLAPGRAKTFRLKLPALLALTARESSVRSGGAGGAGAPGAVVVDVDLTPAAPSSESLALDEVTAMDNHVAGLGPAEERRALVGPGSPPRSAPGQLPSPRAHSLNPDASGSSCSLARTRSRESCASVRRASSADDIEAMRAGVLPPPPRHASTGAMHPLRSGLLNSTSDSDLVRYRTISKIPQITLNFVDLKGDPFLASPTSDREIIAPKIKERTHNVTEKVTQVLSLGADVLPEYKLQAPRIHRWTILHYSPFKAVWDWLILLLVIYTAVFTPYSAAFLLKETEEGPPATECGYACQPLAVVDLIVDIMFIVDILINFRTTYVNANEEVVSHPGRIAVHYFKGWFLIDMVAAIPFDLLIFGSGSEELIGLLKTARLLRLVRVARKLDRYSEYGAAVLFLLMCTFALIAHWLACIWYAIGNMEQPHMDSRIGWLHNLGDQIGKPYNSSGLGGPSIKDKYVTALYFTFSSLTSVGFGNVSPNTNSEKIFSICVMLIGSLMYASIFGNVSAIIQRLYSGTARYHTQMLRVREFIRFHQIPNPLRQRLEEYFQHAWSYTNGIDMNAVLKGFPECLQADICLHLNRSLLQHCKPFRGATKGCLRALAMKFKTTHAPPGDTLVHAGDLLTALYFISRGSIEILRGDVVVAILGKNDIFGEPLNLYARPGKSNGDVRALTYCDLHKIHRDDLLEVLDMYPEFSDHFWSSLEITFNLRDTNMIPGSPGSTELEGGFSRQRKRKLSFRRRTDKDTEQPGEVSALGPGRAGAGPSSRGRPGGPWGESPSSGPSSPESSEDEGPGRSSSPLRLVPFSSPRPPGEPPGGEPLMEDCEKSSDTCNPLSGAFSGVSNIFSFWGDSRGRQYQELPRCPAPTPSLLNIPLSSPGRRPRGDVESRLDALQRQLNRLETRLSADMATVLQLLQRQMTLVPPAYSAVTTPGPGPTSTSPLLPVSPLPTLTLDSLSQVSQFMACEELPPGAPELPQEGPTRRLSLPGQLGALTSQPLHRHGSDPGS
Sequence of Neuronal acetylcholine receptor subunit alpha-7 (Homo sapiens, UniProt P36544) (P36544 whole entry): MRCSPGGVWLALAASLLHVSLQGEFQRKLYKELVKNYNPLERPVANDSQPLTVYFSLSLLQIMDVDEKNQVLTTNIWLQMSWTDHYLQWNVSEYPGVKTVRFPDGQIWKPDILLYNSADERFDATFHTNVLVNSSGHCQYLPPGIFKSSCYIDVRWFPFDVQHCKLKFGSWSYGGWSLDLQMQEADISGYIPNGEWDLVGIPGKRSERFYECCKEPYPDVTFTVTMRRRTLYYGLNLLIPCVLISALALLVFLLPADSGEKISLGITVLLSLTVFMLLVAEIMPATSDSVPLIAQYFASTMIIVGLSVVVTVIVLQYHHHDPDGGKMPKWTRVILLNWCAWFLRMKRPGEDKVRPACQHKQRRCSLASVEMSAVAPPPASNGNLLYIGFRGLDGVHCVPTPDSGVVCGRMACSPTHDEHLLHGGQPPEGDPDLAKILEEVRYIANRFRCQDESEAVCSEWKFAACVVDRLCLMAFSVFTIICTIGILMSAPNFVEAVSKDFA

Consider `COc1ccc(-c2cc(NC(=O)CCCN3CCCOCC3)[nH]n2)cc1`, for which, in [1], the EC50 – broadly, the concentration that produces a half-maximal response – was 1170 nM.

Regarding `COc1ccc(-c2cc(NC(=O)CCCN3CCCCCC3)[nH]n2)cc1`, the IC50 (in general, the point on the concentration scale where inhibition reaches its midpoint) in series [2] was greater than 31600 nM; in [3], greater than 31600 nM; in series [4], 7940 nM. Also, the EC50 in series [1] was 912 nM.

`COc1ccc(-c2cc(NC(=O)CCCN3CCCCC3)[nH]n2)cc1`: the Stability entry in series [5] was “Stable”. Also, the IC50 in [2], in series [3] and in series [4] was greater than 31600 nM in each case. The EC50 in [1] was 417 nM.

As for `COc1ccc(-c2cc(NC(=O)CCCCCN3CCCN(C(C)=O)CC3)n[nH]2)cc1`, the EC50 in series [1] was 1200 nM.

With `COc1ccc(-c2cc(NC(=O)CCCN3CCOCC3)[nH]n2)cc1`, the EC50 in series [1] is 6610 nM.

Take `CC(C)(C)c1cc(NC(=O)CCCN2CCCCC2)[nH]n1`: the pIC50 result in [2], in [6] and in [4] was “inactive” each time. The EC50 in series [1] is greater than 31600 nM.

Regarding `O=C(CCCN1CCCCC1)Nc1cc(-c2cccc(F)c2)n[nH]1`, the Stability result in series [5] was “Stable”. For the same compound, in [7], 1290 nM corresponded to half-maximal inhibition (IC50). In addition, the pIC50 result in series [2] and in series [4] was “Active” throughout. Also, in series [1], the EC50 is 832 nM.

Turning to `COc1cccc(-c2cc(NC(=O)CCCN3CCCCC3)[nH]n2)c1`, in [5], the Stability entry is given as “Stable”. Further, the pIC50 entry in series [2] and in [4] was “Active” throughout. In [1], the EC50 was 468 nM.

For `COc1ccc(-c2cc(NC(=O)CCN3CCCN(C(C)=O)CC3)[nH]n2)cc1`, in series [8], the Emax (as a rule, the maximal effect, on the per cent scale that the assay sets) was greater than 90%. Moreover, in series [1], the EC50 was 8510 nM.

For the compound `COc1ccc(-c2cc(NC(=O)CCCCCN3CCCN(C(C)=O)CC3)[nH]n2)cc1`, the Emax in series [8] is greater than 90%.

Take `O=C(CCCN1CCCCC1)Nc1cc(-c2cncc(F)c2)n[nH]1`: the MTD (usually the highest dose tested that stayed within the study's limit of toxicity) at 7 day in series [9] was no more than 100 mg/kg/day. In addition, the minimal effective dose in series [10] and in series [11] was 3 mg/kg throughout. The inhibition (commonly the percentage by which the read-out fell short of the control) in series [12] was “Active”. Also, in [13], the result was inactive. Besides, the outcome in series [14] was Active. For the same compound, the inhibition in [15] was found to be 62%; in series [16], 57%; in series [17], 64%; in series [18], 73%. In addition, the figures for the EC50 in series [19], in [20] and in [1] were 10000 nM, 10700 nM and 740 nM, respectively. In series [21], the Ki (commonly the equilibrium dissociation constant of an inhibitor or competing ligand from its target) was found to be 390 nM. The Tmax – broadly, the time from dosing to the highest level – in series [22] came to 1 h. Also, the Cmax (in general, the peak of the concentration-time curve) in series [23] was 55 ng/g. Also, the clearance (usually a measure of how efficiently the substance is removed, as volume per time) in series [24] was found to be 23 mL/min/kg. Further, in series [5], the Stability result is “Stable”.

Turning to `COc1ccc(-c2cc(NC(=O)CCCN3CCCN(C(C)=O)CC3)[nH]n2)cc1`, the Stability entry in series [5] is listed as “Stable”. Also, the Emax in series [8] is greater than 90%. Moreover, the EC50 in series [1] is 912 nM.
